Assay results as given in patent publication US8455491B2, “6-cycloamino-3-(pyridazin-4-yl)imidazo[1,2-b]pyridazine and derivatives and pharmaceutical compositions comprising the same” (Sanofi, priority 2007, dated 2013).

Legend:
human CK1 delta = biological target: T1, human CK1 delta (Homo sapiens, UniProt P48730); assay: FRET fluorescence test (Z'Lyte kinase assay Kit), CK1 delta; format: biochemical; details: peptide substrate SER/THR 11 2 μM, ATP 4 times the KM
T1 construct: purchased Invitrogen Corporation PV3665
Description: The capacity of the compounds of the invention to inhibit the phosphorylation of casein by casein kinase 1 epsilon and delta may be evaluated using a FRET (“Fluorescence Resonance Energy Transfer) fluorescence test with the aid of the “Z′Lyte™ kinase assay Kit” (reference PV3670; Invitrogen Corporation™) according to the manufacturer's instructions.
The casein kinases 1 used are obtained from Invitrogen Corporation (human CK1 epsilon PV3500 and human CK1 delta PV3665).
A peptide substrate, labeled at both ends with a fluorophore donor group (coumarin) and a fluorophore acceptor group ([…]) constituting a FRET system is phosphorylated in the presence of ATP by casein kinase 1 epsilon or delta in the presence increasing concentrations of compounds of the invention. The mixture is treated with a site-specific protease that specifically cleaves the peptide substrate to form two fluorescent fragments having a large fluorescence emission ratio.
The fluorescence observed is thus related to the capacity of the products of the invention to inhibit the phosphorylation of the peptide substrate by casein kinase 1 epsilon or casein kinase 1 delta.
The compounds of the invention are dissolved at different concentrations starting with a 10 mM stock solution in DMSO diluted in a buffer containing 50 mM HEPS, pH 7.5, 1 m MEGTA, 0.01% Brij-35, 10 mM MgCl for casein kinase 1 epsilon and supplemented with Trizma Base (50 mM), pH 8.0, and NaN3 (0.01% final) for casein kinase 1 delta.
The phosphorylation of the peptide substrate SER/THR 11 obtained from Invitrogen Corporation™ is performed at a final concentration of 2 μM. The ATP concentration is 4 times the KM, this value being 2 μM for casein kinase 1 epsilon and 4 μM for casein kinase 1 delta.
The emitted fluorescence is measured at wavelengths of 445 and 520 nm (excitation at 400 nm).

[1] = test system: Mper1-luc Rat-1 (P2C4) fibroblasts; assay: Circadian cell assay (mPer1-luciferase reporter, period prolongation); format: cell-based; details: effective concentration that induced a 1-hour prolongation of the circadian period, interpolated from hyperbolic curve
Method: Experimental Protocols for Circadian Cell Assay
Mper1-luc Rat-1 (P2C4) fibroblast cultures were prepared by dividing the cultures every 3-4 days (approximately 10-20% of confluence) on 150 cm^2 degassed polystyrene tissue culture flasks (Falcon® #35-5001) and maintained in growth medium [EMEM (Cellgro #10-010-CV); 10% fetal bovine serum (FBS; Gibco #16000-044); and 50 I.U./ml of penicillin-streptomycin (Cellgro #30-001-CI)] at 37° C. and under 5% CO2.
Cells obtained from Rat-1 fibroblast cultures at 30-50% of confluence as described above were co-transfected with vectors containing the selection marker for resistance to zeocin for a stable transfection and a luciferase reporter gene controlled by the mPer-1 promoter. After 24 to 48 hours, the cultures were divided on 96-well plates and maintained in growth medium supplemented with 50-100 μg/ml of zeocin (Invitrogen® #45-0430) for 10-14 days. The zeocin-resistant stable transfectants were evaluated for the expression of the reporter by adding 100 μM lucerfin (Promega® #E1603®) to the growth medium and by assaying the luciferase activity on a TopCount® scintillation counter (Packard Model #C384V00). The Rat-1 cell clones expressing both zeocin resistance and lucerifase activity controlled by mPer1 were serum-shock synchronized with 50% horse serum [HS (Gibco® #16050-122)] and the activity of the circadian reporter was evaluated. The P2C4 clone of Mper1-luc Rat-1 fibroblasts was selected to test the compound.
Mper1-luc Rat-1 (P2C4) fibroblasts at 40-50% of confluence, obtained according to the protocol described above, were plated out onto 96-well opaque tissue culture plates (Perkin Elmer® #6005680). The cultures are maintained in growth medium supplemented with 100 μg/ml of zeocin (Invitrogen #45-0430) until they reach 100% of confluence (48-72 h). The cultures were then synchronized with 100 μl of synchronization medium [EMEM (Cellgro #10-010-CV); 100 I.U./ml of penicillin-streptomycin (Cellgro #30-001-C1); 50% HS (Gibco #16050-122)] for 2 hours at 37° C. and under 5% CO2. After synchronization, the cultures were rinsed with 100 μl of EMEM (Cellgro #10-010-CV) for 10 minutes at ambient temperature. […]
The period analysis was performed either by determining the interval between the relative light emission minima over several days or by Fourier transform. […] The data were analyzed by adjusting a hyperbolic curve to the data expressed as change of period (y-axis) as a function of the concentration of the test compound (x-axis) in the XLfit™ software and the CE Delta (t+1 h) was interpolated from this curve.

T1 sequence (P48730 whole entry): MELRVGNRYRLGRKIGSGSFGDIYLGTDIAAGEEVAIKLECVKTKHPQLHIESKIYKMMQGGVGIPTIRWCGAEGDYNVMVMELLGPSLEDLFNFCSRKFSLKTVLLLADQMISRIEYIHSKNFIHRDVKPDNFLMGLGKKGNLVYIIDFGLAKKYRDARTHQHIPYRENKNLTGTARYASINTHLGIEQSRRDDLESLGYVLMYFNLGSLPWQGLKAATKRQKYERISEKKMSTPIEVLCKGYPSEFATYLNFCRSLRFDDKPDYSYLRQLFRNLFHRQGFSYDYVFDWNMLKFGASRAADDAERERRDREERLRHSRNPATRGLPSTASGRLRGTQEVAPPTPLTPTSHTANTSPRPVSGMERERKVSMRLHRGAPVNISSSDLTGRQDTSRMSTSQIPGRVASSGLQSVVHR

SMILES: CN1CCN(c2ccc3nc(-c4ccc(F)cc4)c(-c4ccnnc4)n3n2)CC1 [compound 5, 2-(4-fluorophenyl)-6-(4-methylpiperazin-1-yl)-3-pyridazin-4-yl-imidazo[1,2-b]pyridazine]
- IC50 (human CK1 delta): 0.041 to 0.056 µM
- CE Delta (t + 1 h) [1]: 5 nM
- melting point: 232 to 233 °C
